Reference: patent US20230049350A1, “COMPOUNDS FOR TREATING BRAIN CANCER” (Purdue Pharmaceutical Products L.P., priority 2014, published 2023)
“Also recorded” adds a separate entry of the source.

Legend:
[1] = system: MB-468 breast cancer cells; test: Murine model for metastatic breast cancer of the brain, intracerebral MB-468; type: in vivo, mice; settings: MB-468 intracerebral; for median survival: single iv dose day +4, EDO-S101 60 mg/kg, bendamustine 50 mg/kg, controls 55 days
Description: The procedure of Example 3 was repeated, except the murine models were created with 1×10^5 luciferase-transfected MB-468 breast cancer cells to create a […]. EDO-S101 (60 mg/kg body weight), bendamustine (50 mg/kg body weight) and control was administered intravenously via a tail vein to separate groups of the test mice in a single dose on day +4 post intracerebral implantation of the MB-468 breast cancer cells. […] EDO-S101 therefore appears to be a particularly promising treatment for metastatic brain cancer.

U251-luciferase = test: Orthotopic model of U251-luciferase transfected cells; type: in vivo, mice; settings: for mice with tumours of some grade (percent): control 72.7%
Description: Mice isotopically transfected with U251-luciferase in accordance with the procedure of Example 3 were treated with radiotherapy (2 Gy for 5 consecutive days), temozolomide (16 mg/kg for 5 consecutive days, po), radiotherapy and temozolomide (2 Gy for 5 consecutive days and 16 mg/kg for 5 consecutive days, po), EDO-S101 (60 mg/kg, intravenously at days 1, 8 and 15 of the treatment cycle) or control vehicle.
Intracranial tumour growth was monitored with the […] imaging system (Caliper Life Sciences, Hopkinton, MA, USA). Mice were anesthetized with 2% to 4% isofluorane (Baxter, Deerfield, IL, USA) followed by intraperitoneal injections of 150 mg/kg d-luciferin (In Vivo Imaging Solutions). Five animals were measured at the same time and the luminescent camera was set to 1 minute exposure, medium binning, 1 f/stop, blocked excitation filter, and open emission filter. The photographic camera was set to 2 s exposure, medium binning, and 8 f/stop. The field of view was set to 22 cm to capture five mice at once. Serial images were taken on a weekly basis using identical settings. Bioluminescence intensity was quantified using the Living Image software (Caliper Life Sciences).
(§1) Before any irradiation mice were anesthetized with a mixture of ketamine (25 mg/ml)/xylazine (5 mg/ml). Anesthetized tumour-bearing mice received a focal irradiation at the dose of 2 Gy for 5 consecutive days. Irradiation was delivered using an X-ray linear accelerator at a dose rate of 200 cGy/min at room temperature. All mice were shielded with a specially designed lead apparatus to allow irradiation to the […]. Mice were kept under these conditions until all irradiation finished.
All images were obtained in the transverse plane using the following sequences: transverse T2-weighted turbo spin-echo (TSE) sequence (repetition time [TR] msec/echo time [TE] msec) 6766/120, number of signal acquired 4, matrix of 192 × 192) applied with a section thickness of […], an intersection gap of 0.0 mm, and a flip angle of 160 °. The field of view was 36 × 60 mm^2, which included the tumour in its entirety with a resultant voxel size of 0.3 × 0.3 × 1.0 mm^3.
Continuous variables were summarized as mean and standard deviation (SD) or as median and 95% Cl for the median. For continuous variables not normally distributed, statistical comparisons between control and treated groups were established by carrying out the Kruskal-Wallis Tests. For continuous variables normally distributed, statistical comparisons between control and treated groups were established by carrying out the ANOVA test or by Student t test for unpaired data (for two comparisons).

NCI-60 cell lines = settings: read-out: median IC50 value; cited from earlier work
U87 = test: s.c. xenograft model of GBM, U87, time to progression; type: in vivo, mice; settings: for time to progression of the tumours: U87G xenograft
Description: (§2) Next, adopting the procedure of Example 3, s.c. xenograft models of GBMs in mice were prepared using the GBM cell lines U251 and U87.
as §1, with “The U251 mice prepared as above were subjected either subjected to radiotherapy (2 Gy for 5 consecutive days), treatment with EDO-S101 (60 mg/kg intravenously at days 1, 8 and 15 of the treatment cycle) or control only. Before” for “Before”, “tumor-bearing” for “tumour-bearing”
The same sequence of experiments was followed, but this time with the s.c. xenograft models of GBM in mice prepared using the GBM cell line U87. In a first experiment, the U87 mice prepared as above were subjected either subjected to radiotherapy (2 Gy for 5 consecutive days), treatment with EDO-S101 (60 mg/kg intravenously at days 1, 8 and 15 of the treatment cycle) or control only. A study was made of the progression of the GBM.

U251 = test: s.c. xenograft model of GBM, U251, time to progression; type: in vivo, mice; settings: for time to progression of the tumours: U251G xenograft
Description: as §2
as §1, with “The U251 mice prepared as above were subjected either subjected to radiotherapy (2 Gy for 5 consecutive days), treatment with EDO-S101 (60 mg/kg intravenously at days 1, 8 and 15 of the treatment cycle) or control only. Before” for “Before”, “tumor-bearing” for “tumour-bearing”
A study was made of the progression of the GBM according to the procedure of Example 3.
In a follow up experiment, U251 mice prepared in the same manner were either subjected to the current gold standard treatment of radiotherapy and temozolomide (2 Gy for 5 consecutive days and 16 mg/kg for 5 consecutive days, po), treatment with EDO-S101 (60 mg/kg, intravenously at days 1, 8 and 15 of the treatment cycle), treatment with EDO-S101 and radiotherapy (2 Gy for 5 consecutive days and 60 mg/kg, intravenously at days 1, 8 and 15 of the treatment cycle) or control.

[2] = drug alone, 50 days after beginning of treatment
[3] = drug in combination with radiotherapy 2 Gy x 5 days, EDO-S101 60 mg/kg iv days 1, 8, 15, temozolomide 16 mg/kg po x 5 days

Row | Structure (SMILES) | tumour growth ([1]; single iv dose 60 mg/kg day +4) | median survival [1] | survival probability versus radiotherapy or temozolomide (U251-luciferase; drug alone, 60 mg/kg iv days 1, 8, 15, FIG. 17) | mice displaying a large lesion (number) (U251-luciferase; [2]) | mice with tumours of some grade (number) (U251-luciferase; drug alone, 50 days after beginning of treatment, control 8 out of 11) | mice with tumours of some grade (percent) (U251-luciferase; [2]) | IC50 (NCI-60 cell lines) | time to progression of the tumours (U87; drug alone, 60 mg/kg iv days 1, 8, 15, control approximately 15 days) | time to progression of the tumours (U87; [3]) | time to progression versus radiotherapy, or versus radiotherapy and temozolomide (U87; U87 s.c. xenograft, drug alone, FIG. 13, FIG. 14) | time to progression versus EDO-S101 alone and versus radiotherapy and temozolomide (U87; U87 s.c. xenograft, drug plus radiotherapy, FIG. 14) | time to progression of the tumours (U251; drug alone, 60 mg/kg iv days 1, 8, 15, control approximately 17-18 days) | time to progression of the tumours (U251; [3]) | time to progression versus radiotherapy-treated tumours (U251; U251 s.c. xenograft, drug alone, FIG. 11) | time to progression versus EDO-S101 alone and versus radiotherapy and temozolomide (U251; U251 s.c. xenograft, drug plus radiotherapy, FIG. 12) | mice displaying lesions at the end of the study (percent) (U251-luciferase; with radiotherapy 2 Gy x 5 days, temozolomide 16 mg/kg po x 5 days)
1 | Cn1c(CCCCCCC(=O)NO)nc2cc(N(CCCl)CCCl)ccc21 [EDO-S101] | suppression of tumour growth | 71 days | significantly greater | 1 of the 13 | 5 out of 13 | 38.5% | 2.2 µM | 40 days | over 50 days | considerably longer; also recorded: greater than that achieved with the combined radiotherapy and temozolomide treatment | significantly longer | over 50 days | over 50 days | considerably longer | significantly longer | 
2 | Cn1c(CCCC(=O)O)nc2cc(N(CCCl)CCCl)ccc21 [bendamustine] |  | 62 days |  |  |  |  | 72 µM |  |  |  |  |  |  |  |  | 
3 | Cn1nnc2c(C(N)=O)ncn2c1=O [temozolomide] |  |  |  |  |  | 38.5% |  |  | 35 days |  |  |  | 42 days |  |  | 18.2%
